Our source for the Ki values is patent publication US7378435B2, “Aryl-isoxazole-4-carbonyl-indole-carboxylic acid amide derivatives” (Hoffmann-La Roche Inc., priority 2005, dated 2008).

SMILES strings stand for the structures. Read-outs that look alike come from different tables or passages of the source.

This assay has as its target T1, GABA A receptor α5β3γ2 (Homo sapiens, UniProt P18507+P31644).
T1 construct: expressed in transfected cells; host or cells: HEK293 (transiently transfected for the human receptors)
Put plainly: [3H]flumazenil competition binding, human GABA A α5β3γ2 receptors expressed in HEK293 cells. The protocol: The affinity of compounds at GABA A receptor subtypes was measured by competition for [3H]flumazenil (85 Ci/mmol; Roche) binding to HEK293 cells expressing rat (stably transfected) or human (transiently transfected) receptors of composition α1β3γ2, α2β3γ2, α3β3γ2 and α5β3γ2.
Cell pellets were suspended in Krebs-tris buffer (4.8 mM KCl, 1.2 mM CaCl2, 1.2 mM MgCl2, 120 mM NaCl, 15 mM Tris; pH 7.5; binding assay buffer), homogenized by polytron for ca. 20 sec on ice and centrifuged for 60 min at 4° C. (50000 g; Sorvall, rotor: SM24=20000 rpm). The cell pellets were resuspended in Krebs-tris buffer and homogenized by polytron for ca. 15 sec on ice. Protein was measured (Bradford method, Bio-Rad) and aliquots of 1 mL were prepared and stored at −80° C.
Radioligand binding assays were carried out in a volume of […] (96-well plates) which contained […] of cell membranes, [3H]flumazenil at a concentration of 1 nM for α1, α2, α3 subunits and 0.5 nM for α5 subunits and the test compound in the range of […]. Nonspecific binding was defined by 10^−5 M diazepam and typically represented less than 5% of the total binding. Assays were incubated to equilibrium for 1 hour at 4° C. and harvested onto GF/C uni-filters (Packard) by filtration using a Packard harvester and washing with ice-cold wash buffer (50 mM Tris; pH 7.5). After drying, filter-retained radioactivity was detected by liquid scintillation counting. Ki values were calculated using Excel-Fit (Microsoft) and are the means of two determinations.

Setting [1] is: Table 1, human α5, [3H]flumazenil, mean of two determinations, read-out: Ki h.
The mark [2] stands for this setting: human α5β3γ2, 0.5 nM [3H]flumazenil, mean of two determinations, read-out: Ki[μM] hα5.

With `Cc1onc(-c2cccc(F)c2)c1C(=O)c1cn(C)c2cc(C(=O)NCCN3CCOCC3)ccc12` [Example 41, 3-[3-(3-Fluoro-phenyl)-5-methyl-isoxazole-4-carbonyl]-1-methyl-1H-indole-6-carboxylic acid(2-morpholin-4-yl-ethyl)-amide], the affinity, expressed as Ki, was 0.0249 µM.

With `Cc1onc(-c2cccc(F)c2)c1C(=O)c1c[nH]c2cc(C(=O)NCC3CC3)ccc12` [Example 30, 3-[3-(3-Fluoro-phenyl)-5-methyl-isoxazole-4-carbonyl]-1H-indole-6-carboxylicacidcyclopropylmethyl-amide], the Ki under setting [1] turned out to be 0.0537 µM. Regarding `Cc1onc(-c2ccc(F)cc2)c1C(=O)c1c[nH]c2cc(C(=O)NCc3ccccn3)ccc12` [Example 13, 3-[3-(4-Fluoro-phenyl)-5-methyl-isoxazole-4-carbonyl]-1H-indole-6-carboxylicacid (pyridin-2-ylmethyl)-amide], the Ki is 0.00565 µM under setting [1] and 0.00565 µM under setting [2]. With `Cc1onc(-c2cccc(F)c2)c1C(=O)c1c[nH]c2cc(C(=O)NCc3ccccn3)ccc12` [Example 27, 3-[3-(3-Fluoro-phenyl)-5-methyl-isoxazole-4-carbonyl]-1H-indole-6-carboxylicacid (pyridin-2-ylmethyl)-amide], the inhibition constant Ki under setting [1] came out at 0.0394 µM.

Consider `Cc1onc(-c2cccc(F)c2)c1C(=O)c1c[nH]c2cc(C(=O)NCc3ccco3)ccc12` [Example 29, 3-[3-(3-Fluoro-phenyl)-5-methyl-isoxazole-4-carbonyl]-1H-indole-6-carboxylicacid (furan-2-ylmethyl)-amide], for which the Ki under setting [1] was found to be 0.0621 µM. Turning to `Cc1onc(-c2ccccc2)c1C(=O)c1c[nH]c2cc(C(=O)NC3CCOCC3)ccc12` [Example 11, 3-(5-Methyl-3-phenyl-isoxazole-4-carbonyl)-1H-indole-6-carboxylicacid (tetrahydro-pyran-4-yl)-amide], the Ki reads like this: under setting [1], 0.00545 µM; under setting [2], 0.00545 µM. Turning to `Cc1onc(-c2ccc(F)cc2)c1C(=O)c1c[nH]c2cc(C(=O)NCc3cccnc3)ccc12` [Example 24, 3-[3-(4-Fluoro-phenyl)-5-methyl-isoxazole-4-carbonyl]-1H-indole-6-carboxylicacid (pyridin-3-ylmethyl)-amide], the inhibitory constant (Ki) reads like this: under setting [1], 0.00225 µM; under setting [2], 0.00225 µM. For the compound `Cc1onc(-c2ccc(F)cc2)c1C(=O)c1c[nH]c2cc(C(=O)NC3CCCC3)ccc12` [Example 22, 3-[3-(4-Fluoro-phenyl)-5-methyl-isoxazole-4-carbonyl]-1H-indole-6-carboxylicacidcyclopentylamide], the inhibition constant Ki runs as follows: under setting [1], 0.00975 µM; under setting [2], 0.00975 µM. `Cc1onc(-c2cccc(F)c2)c1C(=O)c1cn(C)c2cc(C(=O)NCC3CC3)ccc12` [Example 43, 3-[3-(3-Fluoro-phenyl)-5-methyl-isoxazole-4-carbonyl]-1-methyl-1H-indole-6-carboxylic acidcyclopropylmethyl-amide] yielded a Ki of 0.0667 µM. Regarding `C#CCNC(=O)c1ccc2c(C(=O)c3c(-c4cccc(F)c4)noc3C)c[nH]c2c1` [Example 31, 3-[3-(3-Fluoro-phenyl)-5-methyl-isoxazole-4-carbonyl]-1H-indole-6-carboxylicacid prop-2-ynylamide], the inhibition constant (Ki) under setting [1] was found to be 0.0319 µM. On to `C#CCNC(=O)c1ccc2c(C(=O)c3c(-c4ccccc4)noc3C)c[nH]c2c1` [Example 3, 3-(5-Methyl-3-phenyl-isoxazole-4-carbonyl)-1H-indole-6-carboxylicacid prop-2-ynylamide], for which the Ki reads like this: under setting [1], 0.0029 µM; under setting [2], 0.0029 µM. Turning to `Cc1onc(-c2ccc(F)cc2)c1C(=O)c1c[nH]c2cc(C(=O)NCCO)ccc12` [Example 18, 3-[3-(4-Fluoro-phenyl)-5-methyl-isoxazole-4-carbonyl]-1H-indole-6-carboxylicacid (2-hydroxy-ethyl)-amide], the inhibition constant Ki came out at 0.00185 µM under setting [1] and 0.00185 µM under setting [2]. Consider `Cc1onc(-c2cccc(F)c2)c1C(=O)c1c[nH]c2cc(C(=O)NCCc3cnc[nH]3)ccc12` [Example 26, 3-[3-(3-Fluoro-phenyl)-5-methyl-isoxazole-4-carbonyl]-1H-indole-6-carboxylicacid [2-(1H-imidazol-4-yl)-ethyl]-amide], for which the inhibition constant Ki under setting [1] worked out at 0.0235 µM. As to `C#CCNC(=O)c1ccc2c(C(=O)c3c(-c4ccc(F)cc4)noc3C)c[nH]c2c1` [Example 20, 3-[3-(4-Fluoro-phenyl)-5-methyl-isoxazole-4-carbonyl]-1H-indole-6-carboxylicacid prop-2-ynylamide], the Ki reads like this: under setting [1], 0.00325 µM; under setting [2], 0.00325 µM. Take `Cc1onc(-c2cccc(F)c2)c1C(=O)c1cn(-c2ccccc2)c2cc(C(=O)NC3CCOCC3)ccc12` [Example 50, 3-[3-(3-Fluoro-phenyl)-5-methyl-isoxazole-4-carbonyl]-1-phenyl-1H-indole-6-carboxylic acid(tetrahydro-pyran-4-yl)-amide]: the inhibition constant (Ki) runs as follows: under setting [1], 0.0098 µM; under setting [2], 0.0098 µM.

Regarding `C#CCNC(=O)c1ccc2c(C(=O)c3c(-c4cccc(F)c4)noc3C(C)C)c[nH]c2c1` [Example 38, 3-[3-(3-Fluoro-phenyl)-5-isopropyl-isoxazole-4-carbonyl]-1H-indole-6-carboxylicacid prop-2-ynylamide], the inhibition constant (Ki) under setting [1] was 0.0315 µM. For `Cc1onc(-c2cccc(F)c2)c1C(=O)c1c[nH]c2cc(C(=O)NCCN3CCOCC3)ccc12` [Example 28, 3-[3-(3-Fluoro-phenyl)-5-methyl-isoxazole-4-carbonyl]-1H-indole-6-carboxylicacid (2-morpholin-4-yl-ethyl)-amide], the inhibition constant (Ki) under setting [1] stood at 0.0227 µM. Still for that read-out and setting: with `Cc1onc(-c2cccc(F)c2)c1C(=O)c1c[nH]c2cc(C(=O)NC3CCCC3)ccc12` [Example 33, 3-[3-(3-Fluoro-phenyl)-5-methyl-isoxazole-4-carbonyl]-1H-indole-6-carboxylicacidcyclopentylamide] the figure was 0.0953 µM. As for `Cc1onc(-c2ccccc2)c1C(=O)c1c[nH]c2cc(C(=O)NCC3CC3)ccc12` [Example 2, 3-(5-Methyl-3-phenyl-isoxazole-4-carbonyl)-1H-indole-6-carboxylicacidcyclopropylmethyl-amide], the Ki was 0.00545 µM under setting [1] and 0.00545 µM under setting [2].

For `Cc1onc(-c2cccc(F)c2)c1C(=O)c1cn(-c2ccccc2)c2cc(C(=O)NCc3ccco3)ccc12` [Example 47, 3-[3-(3-Fluoro-phenyl)-5-methyl-isoxazole-4-carbonyl]-1-phenyl-1H-indole-6-carboxylic acid(furan-2-ylmethyl)-amide], under setting [1], the Ki stood at 0.0253 µM. Take `Cc1onc(-c2ccc(F)cc2)c1C(=O)c1c[nH]c2cc(C(=O)NCCc3cnc[nH]3)ccc12` [Example 12, 3-[3-(4-Fluoro-phenyl)-5-methyl-isoxazole-4-carbonyl]-1H-indole-6-carboxylicacid [2-(1H-imidazol-4-yl)-ethyl]-amide]: the Ki was determined as 0.0026 µM under setting [1] and 0.0026 µM under setting [2].

Consider `Cc1onc(-c2ccccc2)c1C(=O)c1c[nH]c2cc(C(=O)NCCN3CCOCC3)ccc12` [Example 6, 3-(5-Methyl-3-phenyl-isoxazole-4-carbonyl)-1H-indole-6-carboxylicacid (2-morpholin-4-yl-ethyl)-amide], for which the inhibitory constant (Ki) under setting [1] was found to be 0.0033 µM and the inhibition constant Ki under setting [2] worked out at 0.0033 µM.

As usually defined, the Ki is a dissociation constant, usually derived from enzyme kinetics or from competition with a known ligand.
